Measurements reported in patent EP1956016A1, “Bicyclic acyltryptophanols” (Bayer Schering Pharma Aktiengesellschaft, priority 2006, dated 2008).

What follows are molecules tested against T1, human FSH receptor (Homo sapiens, UniProt P23945) (assay: HTRF assay for measuring cAMP in cells (FSH antagonism)). Settings: hFSHR clone 16 cells (CHO cells stably transfected with the human FSH receptor); in the presence of 1 e-9 mol/l hFSH; 37°C for 2h.
T1 construct: expressed in transfected cells; host or cells: CHO cells (hFSHR clone 16)
T1 sequence (P23945 18-695): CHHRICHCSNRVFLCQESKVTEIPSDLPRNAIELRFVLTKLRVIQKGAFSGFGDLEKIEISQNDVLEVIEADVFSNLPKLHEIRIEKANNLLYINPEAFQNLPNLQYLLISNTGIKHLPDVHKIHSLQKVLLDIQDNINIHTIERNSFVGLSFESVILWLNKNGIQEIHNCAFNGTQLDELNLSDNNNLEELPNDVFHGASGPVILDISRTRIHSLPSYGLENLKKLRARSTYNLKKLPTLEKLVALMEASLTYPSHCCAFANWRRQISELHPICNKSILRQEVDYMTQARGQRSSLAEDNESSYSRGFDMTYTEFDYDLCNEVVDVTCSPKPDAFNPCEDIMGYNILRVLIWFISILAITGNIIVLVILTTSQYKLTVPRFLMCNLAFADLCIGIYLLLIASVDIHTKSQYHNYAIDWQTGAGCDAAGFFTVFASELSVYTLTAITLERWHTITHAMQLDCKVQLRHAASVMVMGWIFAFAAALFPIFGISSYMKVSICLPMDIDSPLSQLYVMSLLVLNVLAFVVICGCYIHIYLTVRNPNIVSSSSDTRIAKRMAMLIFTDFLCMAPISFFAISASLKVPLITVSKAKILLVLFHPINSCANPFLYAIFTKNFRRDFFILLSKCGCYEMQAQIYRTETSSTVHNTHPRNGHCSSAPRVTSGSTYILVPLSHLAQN
Format: cell-based
Procedure: HTRF assay for measuring cAMP in cells
The method is based on a competitive immunoassay between native cAMP, which has been produced by the cells, and cAMP which is labelled with XL665. The tracer binding was visualized by a monoclonal antibody, anti-cAMP labelled with cryptate [HTRF = homogeneous time-resolved fluorescence].
The specific signal is inversely proportional to the cAMP concentration of the samples employed.
The 665nm/ 620nm fluorescence ratio was evaluated.
The following material was used: 96-well plates for the tissue culture, 96-well plates with black edge and black base (e.g. Fluotrac 600 from Greiner), 96-well plates for the substance dilutions of polypropylene and CAMP Femtomolar (4000wells Kit, CIS Bio International # 62AM1PEC).
The following reagents were used: BSA (bovine serum albumin) Fraction V protease-free, IBMX (3-isobutyl-1-methylxanthine), hFSH (human follicle stimulating hormone), Triton X-100 analytical grade, potassium fluoride analytical grade, G 418 (Geneticin) and Accutase.
Buffer 1 (washing and testing buffer) contained PBS, 1 mM CaCl2, 1 mM MgCl2, 0.2% glucose; 0.1% BSA, 1 mM IBMX.
Buffer 2 (2x lysis buffer) contained 1 % Triton X-100 in PBS (without CaCl2 and MgCl2).
Buffer 3 (assay buffer) contained 50 mM potassium phosphate buffer (pH 7.0); 800 mM potassium fluoride; 0.2% BSA (always added fresh).
On day 1, the cells were seeded in 96-well plates (3x10^4 cells per well hFSHR clone 16 cells (CHO cells stably transfected with the human FSH receptor in 150 µl of medium). The next day, test substance dilutions were made up. For this purpose, all the substances were diluted in ice-cold buffer 1 (with or without hFSH), and the substance dilutions were placed on ice until applied to the cells.
The cell supernatant was then aspirated off, and the cells were washed 2x with 200 µl of buffer 1. The cells were treated with 60 µl of the appropriate substance concentrations at 37°C for 2h. The cells were then lysed with 60 µl of buffer 2 (put onto the supernatant) (on a plate shaker at RT for 30 min).
The test conjugates (XL-665 and anti-cAMP cryptate) were diluted in buffer 3 in accordance with the manufacturers' information. The actual mixture for measurement was pipetted into a black 96-well plate (in each case 15 µl of the cell lysate diluted with 35 µl of buffer 1; firstly 25 µl of XL-665 conjugate were pipetted and, after 10 min, 25 µl of the anti-cAMP cryptate were added). This is followed by incubation at RT for 90 minutes. The measurement was carried out in a PheraStar (BMG).
Tissue culture conditions
1) hFSHr clone 16 Ham's F12 PSG 10% FCS 700 µg/ml G 418 (Geneticin) from PAA.
Dose-effect curve (hFSH) for the human receptor: 1 e-8, 3e-9, 1 e-9, 3e-10, 1e-10, 3e-11, 1e-11, 3e-12 mol/l.
The test substances were employed in suitable dilutions in the absence (test for agonism) and in the presence of 1 e-9 mol/l hFSH.
The values of the well ratio were averaged and then entered directly in SigmaPlot versus the concentrations. The maximum and minimum values were determined for each plate, and half the difference is to be regarded as IC50.
With C=CC1Cc2cc(-c3ccc(OC)c(OC)c3)cc(C(=O)N[C@@H](CO)Cc3c[nH]c4ccccc34)c2O1 (mixture of isomers) [Example 12, 5-(3,4-Dimethoxy-phenyl)-2-vinyl-2,3-dihydro-benzofuran-7-carboxylic acid [(R)-1-hydroxymethyl-2-(1H-indol-3-yl)-ethyl]-amide] the IC50 was 350 nM. CNC(=O)c1ccc(-c2cc3c(c(C(=O)N[C@@H](CO)Cc4c[nH]c5ccccc45)c2)OCC=C3)cc1Cl [Example 2, 6-(3-Chloro-4-methylcarbamoyl-phenyl)-2H-chromene-8-carboxylic acid [(R)-2-hydroxy-1-(1H-indol-3-ylmethyl)-ethyl]-amide] was tested, and the IC50 was 130 nM. For Cc1ccccc1C#Cc1cc2c(c(C(=O)N[C@@H](CO)Cc3c[nH]c4ccccc34)c1)OCC=C2 [Example 4, 6-o-Tolylethynyl-2H-chromene-8-carboxylic acid [(R)-1-hydroxymethyl-2-(1H-indol-3-yl)-ethyl]-amide], the IC50 was 450 nM. Molecule CNC(=O)c1cc(F)cc(-c2cc3c(c(C(=O)N[C@@H](CO)Cc4c[nH]c5ccccc45)c2)OC(C)(C)C=C3)c1 [Example 8, 6-(3-Fluoro-5-methylcarbamoyl-phenyl)-2,2-dimethyl-2H-chromene-8-carboxylic acid [(R)-2-hydroxy-1-(1 H-indol-3-yl-methyl)-ethyl]-amide] has an IC50 of 14 nM. Molecule CCC1Cc2cc(-c3ccc(OC)c(OC)c3)cc(C(=O)N[C@@H](CO)Cc3c[nH]c4ccccc34)c2O1 (stereo partly drawn) [Example 13, 5-(3,4-Dimethoxy-phenyl)-2-ethyl-2,3-dihydro-benzofuran-7-carboxylic acid [(R)-1-hydroxymethyl-2-(1H-indol-3-yl)-ethyl]-amide] has an IC50 of 150 nM. Work on CNC(=O)c1ccc(-c2cc3c(c(C(=O)N[C@@H](CO)Cc4c[nH]c5ccccc45)c2)OCCO3)cc1Cl [Example 14, 7-(3-Chloro-4-methylcarbamoyl-phenyl)-2,3-dihydro-benzo[1,4]dioxine-5-carboxylic acid [(R)-2-hydroxy-1-(1 H-indol-3-ylmethyl)-ethyl]-amide] yielded an IC50 of 450 nM. In the case of COc1cc(-c2cc3c(c(C(=O)N[C@@H](CO)Cc4c[nH]c5ccccc45)c2)OCC3)cc(F)c1F [Example 20, 5-(3,4-Difluoro-5-methoxy-phenyl)-2,3-dihydro-benzofuran-7-carboxylic acid [(R)-2-hydroxy-1-(1H-indol-3-ylmethyl)-ethyl]-amide], the IC50 is reported as 2000 nM.
